Test results taken from patent US12502398B2, “Combination therapy for treating cancer” (AstraZeneca AB, priority 2019, dated 2025).

What was measured:
[1] = system: Mouse MC38 colorectal cancer cells expressing OVA antigen; experiment: MC38-OVA syngeneic tumor model, tumor volume; type: in vivo; details: COMPOUND 12 30 mg/kg orally twice per day, Anti-PDL1 10 mg/kg ip twice per week
Description: (§1) Mouse MC38 colorectal cancer cells expressing OVA antigen (5×10^5 cells/mouse), were subcutaneously implanted in the right flank of 6 to 8 weeks old female C57BL/6 mice. On day 6 post transplant, groups of mice were treated with vehicle (water), 30 mg/kg COMPOUND 12, 10 mg/kg Anti-PDL1 (MEDI4736), or the combination. COMPOUND 12 was formulated in water and dosed orally twice per day. MEDI4736 was formulated in 1×PBS and dosed intraperitoneally twice per week for 2 weeks. Tumor length and width was measured by caliper and tumor volume was calculated using the formula (length×width^2)*π/6 then reported as tumor volume as calculated.

[2] = system: Mouse CT.26 WT colorectal cancer cells; experiment: CT.26 WT syngeneic tumor model, tumor volume; type: in vivo; details: COMPOUND 12 30 mg/kg orally twice per day, Anti-PDL1 10 mg/kg ip twice per week
Description: as §1, with “CT.26 WT” for “MC38”, “cells” for “cells expressing OVA antigen”, “Balb/C” for “C57BL/6”, “implant,” for “transplant,”, “combination. Additional groups were treated with 10 mg/kg Anti-NKG2A (monalizumab), in combination with either COMPOUND 12 or MEDI4736, or a triplicate of COMPOUND 12, monalizumab and MEDI4736.” for “combination.”, “weeks. Monalizumab was formulated in 1×PBS and dosed intravenously twice per week for 1.5 weeks (3 doses).” for “weeks.”

[3] = system: Mouse Lewis lung (LL/2) carcinoma cells; experiment: LL/2 syngeneic tumor model with TLR3 agonist, tumor volume; type: in vivo; details: Poly I:C 7.5 mg/kg ip 3x/week; for efficacy / monotherapy activity (in words): COMPOUND 12 30 mg/kg po BID
Description: Mouse Lewis lung (LL/2) carcinoma cells (1×10^6 cells/mouse), were subcutaneously implanted in the right flank of 6 to 8 weeks old C57BL/6 mice. On day 6 post implant, groups of mice were treated with vehicle (water), 30 mg/kg COMPOUND 12, 7.5 mg/kg TLR3 agonist (Poly I:C), or the combination. COMPOUND 12 was formulated in water and dosed orally twice per day. Poly I:C was formulated in water and dosed intraperitoneally 3×/week. Tumor length and width was measured by caliper and tumor volume was calculated using the formula (length×width^2)*π/6 then reported as tumor volume as calculated.

MC38-OVA model = experiment: In vivo PD study of immune cell changes in MC38-OVA model (flow cytometry); design: species or system mouse; details: draining lymph node
Description: For monitoring immune cell changes tumors were harvested either four, ten or fourteen days post treatment. Tumors were excised and mechanically minced. Tumors were then incubated with tumor dissociation enzyme mix (Miltenyi Biotec) at 37° C. for 40 min in gentle MACS instrument (Miltenyi biotec). Single cell suspension were made and stained for a variety of immune cell markers to determine the immune cell changes post treatment using multicolor flow cytometry. Furthermore, the functional response of CD8+ cytotoxic T cells was evaluated by ex vivo restimulation with phorbol 12-myristate-13-acetate (PMA) and ionomycin prior to analysis.

[4] = system: LL/2 murine lung carcinoma cells; experiment: LL/2 syngeneic lung tumor model with radio therapy; type: in vivo, mouse; details: COMPOUND 12 30 mg/kg twice daily, radiation 5 gray on days 6 and 9 after implant
Description: Six-eight week old BL/6 mice (Charles River Labs) were implanted with 1e6 LL/2 murine lung carcinoma cells subcutaneously on the right flank. At 6 days post implant, animals were randomized by mean cage tumor volume into four groups (n=12/ group). Group 1 was anesthetized for mock irradiation on days 6 and 9, and dosed with vehicle (water) PO, BID starting on day 6. Group 2 was anesthetized and given 5 Gy of radiation targeted to the tumor on days 6 and 9. Group 3 was administered AZ8400 at 30 mg/kg PO bid starting on Day 6, and Group 4 was administered AZ8400 at 30 mg/kg starting on Day 6, and anesthetized and irradiated on days 6 and 9. Body weight and tumor volume were measured twice weekly until tumors were >1500 mm3, at which point mice were humanely sacrificed

## CC(C)[C@H](N)C(=O)N[C@H]1CN[C@@](CCCCB(O)O)(C(=O)O)C1 [COMPOUND 12, (2R,4R)-4-((S)-2-amino-3-methylbutanamido)-2-(4-boronobutyl)pyrrolidine-2-carboxylic acid]
[1]
  efficacy (in words): modestly efficacious
[2]
  efficacy (in words): modestly efficacious
[3]
  efficacy / monotherapy activity (in words): modestly efficacious
MC38-OVA model
  IFNg producing CD8+ T cells in the periphery (draining LN): increase
  TNFa producing CD8+ T cells in the periphery (draining LN): increase
[4]
  tumor growth inhibition: about 30%

## Anti-PDL1: MEDI4736, also known as durvalumab, an anti-PD-L1 antibody [reference compound]
[1]
  efficacy (in words): modest efficacy
[2]
  efficacy (in words): modest efficacy

## polyinosinic:polycytidylic acid [Poly I:C]
[3]
  efficacy / monotherapy activity (in words): moderate monotherapy activity
[3]; day 16
  TGI on day 16: 76%
